Like-named read-outs stand apart in the source and are kept apart here. Each block holds one molecule with its values, some of them ahead of it.
Columns and labels:
Assay in all cases: biochemical
Design in all cases: DiscoveRx KINOMEscan active site-directed competition binding; percent of control kinase bound to immobilised ligand
[1] = molecular target: CSNK2A2 (Homo sapiens, UniProt P19784)
[2] = molecular target: T1, TAK1 (Homo sapiens, UniProt O43318)
T1 construct: gene MAP3K7
T1 sequence (O43318 1-606): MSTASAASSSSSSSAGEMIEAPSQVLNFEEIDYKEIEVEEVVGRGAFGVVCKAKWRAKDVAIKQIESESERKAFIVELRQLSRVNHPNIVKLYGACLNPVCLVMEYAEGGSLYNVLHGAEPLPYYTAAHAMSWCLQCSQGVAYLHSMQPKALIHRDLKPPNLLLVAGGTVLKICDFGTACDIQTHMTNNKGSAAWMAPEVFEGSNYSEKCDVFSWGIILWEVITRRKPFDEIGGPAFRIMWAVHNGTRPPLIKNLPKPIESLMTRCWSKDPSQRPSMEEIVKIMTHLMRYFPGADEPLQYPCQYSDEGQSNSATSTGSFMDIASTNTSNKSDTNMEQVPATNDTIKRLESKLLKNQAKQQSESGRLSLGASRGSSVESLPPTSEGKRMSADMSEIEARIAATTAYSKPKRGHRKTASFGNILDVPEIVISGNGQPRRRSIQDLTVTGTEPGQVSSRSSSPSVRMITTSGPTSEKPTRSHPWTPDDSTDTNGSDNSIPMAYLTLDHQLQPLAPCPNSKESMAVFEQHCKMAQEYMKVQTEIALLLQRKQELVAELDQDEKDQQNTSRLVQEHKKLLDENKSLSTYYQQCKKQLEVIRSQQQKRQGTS

[3] = molecular target: T2, NEK2 (Homo sapiens, UniProt P51955)
T2 sequence (P51955 1-445): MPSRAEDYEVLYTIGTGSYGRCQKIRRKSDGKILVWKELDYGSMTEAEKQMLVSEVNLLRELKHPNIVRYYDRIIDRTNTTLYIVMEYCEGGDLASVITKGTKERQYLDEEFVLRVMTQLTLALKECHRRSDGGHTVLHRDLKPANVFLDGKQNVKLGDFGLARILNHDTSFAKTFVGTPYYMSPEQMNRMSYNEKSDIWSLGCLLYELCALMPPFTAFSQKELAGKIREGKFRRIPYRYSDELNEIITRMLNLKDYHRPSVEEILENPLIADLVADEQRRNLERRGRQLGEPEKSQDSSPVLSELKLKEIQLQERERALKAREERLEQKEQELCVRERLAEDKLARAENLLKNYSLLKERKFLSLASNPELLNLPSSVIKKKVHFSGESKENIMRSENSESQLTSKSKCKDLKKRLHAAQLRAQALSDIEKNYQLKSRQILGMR

[4] = molecular target: ERBB2 (Homo sapiens, UniProt P04626)
Chain of ERBB2 (P04626 whole entry): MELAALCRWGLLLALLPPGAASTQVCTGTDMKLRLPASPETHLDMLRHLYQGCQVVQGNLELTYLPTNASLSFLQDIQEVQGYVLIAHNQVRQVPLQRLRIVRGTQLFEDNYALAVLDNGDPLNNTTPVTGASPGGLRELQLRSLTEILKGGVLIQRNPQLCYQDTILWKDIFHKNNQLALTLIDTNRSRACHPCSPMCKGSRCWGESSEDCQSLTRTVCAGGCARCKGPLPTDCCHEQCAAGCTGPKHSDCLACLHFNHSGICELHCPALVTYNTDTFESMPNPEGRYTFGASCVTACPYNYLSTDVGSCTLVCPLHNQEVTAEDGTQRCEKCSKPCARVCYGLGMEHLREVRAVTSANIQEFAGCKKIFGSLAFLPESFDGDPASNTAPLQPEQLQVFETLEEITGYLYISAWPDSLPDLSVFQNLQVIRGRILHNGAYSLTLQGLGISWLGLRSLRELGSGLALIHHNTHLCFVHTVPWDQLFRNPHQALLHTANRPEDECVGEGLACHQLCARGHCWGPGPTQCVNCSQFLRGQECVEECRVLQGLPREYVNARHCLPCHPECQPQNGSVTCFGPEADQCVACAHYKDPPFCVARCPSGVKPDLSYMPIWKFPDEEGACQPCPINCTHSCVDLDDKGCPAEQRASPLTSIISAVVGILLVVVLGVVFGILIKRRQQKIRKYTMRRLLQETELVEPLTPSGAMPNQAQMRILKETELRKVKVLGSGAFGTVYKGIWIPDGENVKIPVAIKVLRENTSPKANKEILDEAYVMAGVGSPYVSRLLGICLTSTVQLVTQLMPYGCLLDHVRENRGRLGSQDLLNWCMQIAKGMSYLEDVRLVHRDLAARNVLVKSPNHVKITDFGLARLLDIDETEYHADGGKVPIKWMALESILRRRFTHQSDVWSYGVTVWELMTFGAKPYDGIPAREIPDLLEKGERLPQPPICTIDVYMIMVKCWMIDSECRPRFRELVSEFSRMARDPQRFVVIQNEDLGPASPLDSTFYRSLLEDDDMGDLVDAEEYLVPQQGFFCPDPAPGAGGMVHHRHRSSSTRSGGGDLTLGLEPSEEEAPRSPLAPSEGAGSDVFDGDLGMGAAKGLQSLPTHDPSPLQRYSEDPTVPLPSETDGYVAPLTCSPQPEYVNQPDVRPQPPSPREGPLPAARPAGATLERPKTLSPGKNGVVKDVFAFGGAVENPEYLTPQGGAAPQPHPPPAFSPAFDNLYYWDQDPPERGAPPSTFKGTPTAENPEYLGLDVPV

[5] = molecular target: T3, HIPK4 (Homo sapiens, UniProt Q8NE63)
T3 sequence (Q8NE63 1-616): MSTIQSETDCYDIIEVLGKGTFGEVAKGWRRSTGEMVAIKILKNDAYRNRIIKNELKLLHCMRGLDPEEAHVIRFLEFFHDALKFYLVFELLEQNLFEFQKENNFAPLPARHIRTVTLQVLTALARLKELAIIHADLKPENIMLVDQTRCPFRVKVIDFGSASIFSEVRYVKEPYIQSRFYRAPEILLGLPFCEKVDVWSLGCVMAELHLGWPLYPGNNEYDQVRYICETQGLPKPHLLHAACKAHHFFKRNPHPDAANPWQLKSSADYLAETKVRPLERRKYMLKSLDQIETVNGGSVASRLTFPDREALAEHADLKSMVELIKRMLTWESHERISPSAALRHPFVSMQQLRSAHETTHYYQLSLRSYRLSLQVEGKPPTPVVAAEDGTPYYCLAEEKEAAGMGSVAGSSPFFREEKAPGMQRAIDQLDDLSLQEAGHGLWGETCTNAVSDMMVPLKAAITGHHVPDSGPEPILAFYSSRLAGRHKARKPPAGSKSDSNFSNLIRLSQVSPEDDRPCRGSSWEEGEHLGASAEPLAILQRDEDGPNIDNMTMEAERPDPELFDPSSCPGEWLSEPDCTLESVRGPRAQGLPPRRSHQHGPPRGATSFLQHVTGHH

[6] = molecular target: T4, GRK7 (Homo sapiens, UniProt Q8WTQ7)
T4 sequence (Q8WTQ7 1-553): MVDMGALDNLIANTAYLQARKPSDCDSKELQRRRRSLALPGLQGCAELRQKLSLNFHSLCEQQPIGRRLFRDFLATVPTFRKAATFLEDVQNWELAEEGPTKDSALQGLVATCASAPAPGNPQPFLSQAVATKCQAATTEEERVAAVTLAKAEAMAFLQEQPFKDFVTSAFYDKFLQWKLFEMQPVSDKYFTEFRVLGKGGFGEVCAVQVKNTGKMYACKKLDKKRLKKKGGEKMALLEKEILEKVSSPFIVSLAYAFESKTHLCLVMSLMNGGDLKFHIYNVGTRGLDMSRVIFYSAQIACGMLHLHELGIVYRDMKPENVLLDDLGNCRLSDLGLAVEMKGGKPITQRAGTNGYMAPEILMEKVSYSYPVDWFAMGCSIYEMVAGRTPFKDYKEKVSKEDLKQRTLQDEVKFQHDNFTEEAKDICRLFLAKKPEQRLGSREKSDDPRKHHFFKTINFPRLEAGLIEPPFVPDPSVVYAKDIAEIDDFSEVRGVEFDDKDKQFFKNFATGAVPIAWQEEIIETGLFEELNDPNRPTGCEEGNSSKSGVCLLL

[7] = molecular target: DAPK1 (Homo sapiens, UniProt P53355)
Chain of DAPK1 (P53355 whole entry): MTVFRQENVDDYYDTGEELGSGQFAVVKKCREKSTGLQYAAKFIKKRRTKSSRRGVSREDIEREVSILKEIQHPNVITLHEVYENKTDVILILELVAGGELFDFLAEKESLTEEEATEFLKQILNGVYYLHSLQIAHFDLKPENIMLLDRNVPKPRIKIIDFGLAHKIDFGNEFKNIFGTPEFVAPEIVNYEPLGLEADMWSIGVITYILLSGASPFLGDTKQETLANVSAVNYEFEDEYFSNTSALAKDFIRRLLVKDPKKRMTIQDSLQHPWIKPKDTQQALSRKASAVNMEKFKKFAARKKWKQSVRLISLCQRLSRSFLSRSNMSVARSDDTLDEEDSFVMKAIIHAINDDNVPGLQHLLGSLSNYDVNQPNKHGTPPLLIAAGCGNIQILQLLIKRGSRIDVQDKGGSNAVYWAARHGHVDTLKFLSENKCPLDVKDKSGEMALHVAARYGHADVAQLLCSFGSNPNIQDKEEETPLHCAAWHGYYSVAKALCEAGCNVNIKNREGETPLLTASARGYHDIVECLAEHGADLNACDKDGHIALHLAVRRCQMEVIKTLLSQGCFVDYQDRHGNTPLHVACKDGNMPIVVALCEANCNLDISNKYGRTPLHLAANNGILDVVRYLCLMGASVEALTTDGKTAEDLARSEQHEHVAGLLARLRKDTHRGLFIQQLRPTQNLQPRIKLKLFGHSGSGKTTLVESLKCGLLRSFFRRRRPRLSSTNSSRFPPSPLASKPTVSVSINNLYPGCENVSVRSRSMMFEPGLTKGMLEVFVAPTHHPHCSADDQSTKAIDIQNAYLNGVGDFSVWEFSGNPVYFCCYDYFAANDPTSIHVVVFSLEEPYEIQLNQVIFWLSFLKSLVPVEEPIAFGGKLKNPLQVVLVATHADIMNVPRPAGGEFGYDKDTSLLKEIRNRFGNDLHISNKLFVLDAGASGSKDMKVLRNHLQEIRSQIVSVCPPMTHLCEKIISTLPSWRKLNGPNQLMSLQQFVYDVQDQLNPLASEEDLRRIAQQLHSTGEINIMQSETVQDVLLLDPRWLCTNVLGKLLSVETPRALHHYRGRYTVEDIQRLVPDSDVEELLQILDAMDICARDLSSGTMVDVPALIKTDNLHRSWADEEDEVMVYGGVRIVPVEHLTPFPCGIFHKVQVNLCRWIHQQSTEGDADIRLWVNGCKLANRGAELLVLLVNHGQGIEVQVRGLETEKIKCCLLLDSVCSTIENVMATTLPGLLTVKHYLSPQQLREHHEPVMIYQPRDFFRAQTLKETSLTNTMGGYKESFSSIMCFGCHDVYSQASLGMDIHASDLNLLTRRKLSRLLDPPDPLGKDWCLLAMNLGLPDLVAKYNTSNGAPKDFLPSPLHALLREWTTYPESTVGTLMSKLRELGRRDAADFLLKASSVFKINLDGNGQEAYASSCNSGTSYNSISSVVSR

[8] = molecular target: T5, NIM1 (Homo sapiens, UniProt Q8IY84)
T5 construct: gene NIM1K
T5 sequence (Q8IY84 whole entry): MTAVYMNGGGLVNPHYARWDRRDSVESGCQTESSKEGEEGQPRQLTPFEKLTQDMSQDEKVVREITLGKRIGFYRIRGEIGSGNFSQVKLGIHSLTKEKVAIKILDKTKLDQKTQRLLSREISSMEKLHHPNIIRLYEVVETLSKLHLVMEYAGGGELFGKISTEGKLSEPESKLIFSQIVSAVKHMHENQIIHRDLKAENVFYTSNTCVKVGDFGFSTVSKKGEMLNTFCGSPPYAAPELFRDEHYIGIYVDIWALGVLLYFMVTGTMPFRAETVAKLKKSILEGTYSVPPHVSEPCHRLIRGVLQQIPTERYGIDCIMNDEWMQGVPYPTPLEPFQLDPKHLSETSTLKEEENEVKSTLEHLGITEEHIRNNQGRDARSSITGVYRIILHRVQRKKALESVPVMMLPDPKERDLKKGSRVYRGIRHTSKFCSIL

[9] = read-out: Olaparib / %Ctrl @ 10000nM
[10] = read-out: Talazoparib (BMN 673) / %Ctrl @ 10000nM
[11] = read-out: Rucaparib / %Ctrl @ 10000nM, binding competition, % of control
[12] = read-out: Niraparib (MK-4827) / %Ctrl @ 10000nM

Chain of CSNK2A2 (P19784 whole entry): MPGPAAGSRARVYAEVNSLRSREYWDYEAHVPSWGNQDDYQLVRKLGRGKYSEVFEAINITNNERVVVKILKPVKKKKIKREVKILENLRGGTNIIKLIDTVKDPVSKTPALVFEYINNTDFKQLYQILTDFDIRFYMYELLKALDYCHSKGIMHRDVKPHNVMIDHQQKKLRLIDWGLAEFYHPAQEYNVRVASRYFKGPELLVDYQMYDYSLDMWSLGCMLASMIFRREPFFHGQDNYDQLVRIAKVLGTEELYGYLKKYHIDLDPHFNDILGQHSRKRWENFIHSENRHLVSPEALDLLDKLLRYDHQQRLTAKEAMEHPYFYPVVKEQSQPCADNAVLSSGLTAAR

- percent of control binding at 10 µM [1, 9]: 83%
- percent of control binding at 10 µM [2, 9]: 77%
- percent of control binding at 10 µM [3, 9]: 100%
- percent of control binding at 10 µM [4, 9]: 100%
- percent of control binding at 10 µM [5, 9]: 100%
- percent of control binding at 10 µM [6, 9]: 85%
- percent of control binding at 10 µM [7, 9]: 87%
- percent of control binding at 10 µM [8, 9]: 83%
SMILES: O=C(c1cc(Cc2n[nH]c(=O)c3ccccc23)ccc1F)N1CCN(C(=O)C2CC2)CC1 [Olaparib]

- percent of control binding at 10 µM [1, 10]: 77%
- percent of control binding at 10 µM [2, 10]: 100%
- percent of control binding at 10 µM [3, 10]: 100%
- percent of control binding at 10 µM [4, 10]: 98%
- percent of control binding at 10 µM [5, 10]: 100%
- percent of control binding at 10 µM [6, 10]: 100%
- percent of control binding at 10 µM [7, 10]: 89%
- percent of control binding at 10 µM [8, 10]: 79%
SMILES: Cn1ncnc1[C@H]1c2n[nH]c(=O)c3cc(F)cc(c23)N[C@@H]1c1ccc(F)cc1 [Talazoparib]

- percent of control binding at 10 µM [1, 11]: 2%
- percent of control binding at 10 µM [2, 11]: 38%
- percent of control binding at 10 µM [3, 11]: 87%
- percent of control binding at 10 µM [4, 11]: 100%
- percent of control binding at 10 µM [5, 11]: 51%
- percent of control binding at 10 µM [6, 11]: 48%
- percent of control binding at 10 µM [7, 11]: 29%
- percent of control binding at 10 µM [8, 11]: 71%
SMILES: CNCc1ccc(-c2[nH]c3cc(F)cc4c3c2CCNC4=O)cc1 [Rucaparib]

SMILES: NC(=O)c1cccc2cn(-c3ccc([C@@H]4CCCNC4)cc3)nc12 [Niraparib]
- percent of control binding at 10 µM [1, 12]: 1.2%
- percent of control binding at 10 µM [2, 12]: 38%
- percent of control binding at 10 µM [3, 12]: 98%
- percent of control binding at 10 µM [4, 12]: 82%
- percent of control binding at 10 µM [5, 12]: 80%
- percent of control binding at 10 µM [6, 12]: 88%
- percent of control binding at 10 µM [7, 12]: 77%
- percent of control binding at 10 µM [8, 12]: 100%

Reference: publication PMC7026418, “The kinase polypharmacology landscape of clinical PARP inhibitors” (Scientific Reports, 2020)
